Counter-ions that a name gives are not always drawn. Like-named read-outs stand apart in the source and are kept apart here.
How the values were obtained:
[1] = test system: NCI-H1417 cells; assay: In vitro cell proliferation detection (CellTiter-Glo, 7 days); type: cell-based; conditions: Homo sapiens, 168 h; NCI-H1417 cells, 7 days, CellTiter-Glo; read-out: NCI-H1417 proliferation inhibition IC50
[2] = target: LSD1 (Homo sapiens (Human), UniProt O60341); assay: LSD1 enzyme activity detection (HTRF); type: biochemical; conditions: read-out: Inhibition of enzymatic activity of LSD1 IC50

Row | SMILES | IC50 [1] | IC50 ([2]; HTRF, H3K4me1 substrate) | IC50 [2]
1 | COc1ccc(-c2c(-c3ccc(C#N)c(O)c3)nc(N3C4CCC3CC(N)C4)n3ccnc23)cc1F (stereo not shown) [Example 185, 4-(5-(3-amino-8-azabicyclo[3.2.1]octane-8-yl)-8-(3-fluoro-4-methoxyphenyl)imidazolo[1,2-c]pyrimidin-7-yl)-2-hydroxybenzonitrile] | 160 nM | 14.1 nM | –
2 | N#Cc1ccc(-c2nc(N3C4CCC3CC(N)C4)n3ccnc3c2-c2cc3nonc3cc2F)cc1F (stereo not shown) [Example 186, 4-(5-(3-amino-8-azabicyclo[3.2.1]octane-8-yl)-8-(6-fluorobenzo[c] [1,2,5]oxadiazole-5-yl)imidazolo [1,2-c]pyrimidin-7-yl)-2-fluorobenzonitrile] | 18 nM | 17.3 nM | –
3 | COc1ccc(-c2c(-c3ccc(C#N)c(F)c3)nc(N3CCC(N)CC3)n3c(C)cnc23)cc1O [Example 187, 4-(5-(4-aminopiperidin-1-yl)-8-(3-hydroxy-4-methoxyphenyl)-3-methylimidazolo[1,2-c]pyrimidin-7-yl)-2-fluorobenzonitrile] | 1.11 nM | 0.8 ± 0.1 nM | –
4 | Cc1ccc(-c2c(-c3ccc(C#N)cc3)cc3c(N4CC(N)C4)nccn23)cc1 [Example 188, 4-(1-(3-aminoazetidin-1-yl)-6-(p-tolyl)pyrrolo[1,2-a]pyrazin-7-yl)benzonitrile hydrochloride] | > 1000 nM | 35 nM | –
5 | CN[C@@H]1CCCN(c2nccn3c(-c4ccc(C)cc4)c(-c4ccc(C#N)cc4)cc23)C1 [Example 189, (R)-4-(1-(3-(methylamino)piperidin-1-yl)-6-(p-tolyl)pyrrolo[1,2-a]pyrazin-7-yl)benzonitrile hydrochloride] | 4.04 nM | 0.29 ± 0.11 nM | –
6 | Cc1ccc(-c2c(-c3ccc(C#N)cc3)cc3c(N4CCN(C)CC4)nccn23)cc1 [Example 190, 4-(1-(4-methylpiperazin-1-yl)-6-(p-tolyl)pyrrolo [1,2-a]pyrazin-7-yl) benzonitrile] | 1120 nM | 0.331 nM | –
7 | Cc1ccc(-c2c(-c3ccc(C#N)cc3)cc3c(N4CCC(N)C4)nccn23)cc1 (stereo not shown) [Example 192, 4-(1-(3-aminopyrrolidin-1-yl)-6-(p-tolyl)pyrrolo [1,2-a]pyrazine-7-yl) benzonitrile hydrochloride] | 81 nM | 10.6 nM | –
8 | Cc1ccc(-c2c(-c3ccc(C#N)cc3)cc3c(N4CCC(N)CC4)nccn23)cc1 [Example 193, 4-(1-(4-aminopiperidin-1-yl)-6-(p-tolyl)pyrrolo[1,2-a]pyrazin-7-yl)benzonitrile hydrochloride] | 61.4 nM | 1.72 nM | –
9 | Cc1ccc(-c2c(-c3ccc(C#N)cc3)cc3c(N4CCC(N)CC4)nncn23)cc1 [Example 196, 4-(1-(4-aminopiperidin-1-yl)-6-(p-tolyl)pyrrolo[1,2-d][1,2,4]triazin-7-yl)benzonitrile hydrochloride] | 656 nM | – | 37.7 nM
10 | CNC1CCCN(c2ccnn3c(-c4ccc(C)cc4)c(-c4ccc(C#N)cc4)cc23)C1 (stereo not shown) [Example 197, 4-(4-(3-(methylamino)piperidin-1-yl)-7-(p-tolyl)pyrrolo[1,2-b]pyridazin-6-yl]benzonitrile hydrochloride] | 24.2 nM | – | 9.44 ± 5.96 nM
11 | Cc1sc(C(=O)N2C3CCC2CC(N)C3)cc1-c1ccc(C#N)c(F)c1 (stereo not shown) [Example 199, 4-(5-(3-amino-8-azadicyclo [3.2.1]octane-8-carbonyl)-2-methylthiophene-3-yl)-2-fluorobenzonitrile hydrochloride] | > 1000 nM | 72 nM | –
12 | N#Cc1ccc(-c2cc(C(=O)N3C4CCC3CC(N)C4)sc2-c2ccc3cc[nH]c3c2)cc1F (stereo not shown) [Example 200, 4-(5-(3-amino-8-azabicyclo [3.2.1]octane-8-carbonyl)-2-(1-hydro-indol-6-yl)thiophen-3-yl)-2-fluorobenzonitrile] | 34 nM | 0.69 nM | –
13 | N#Cc1ccc(-c2cc(C(=O)N3C4CCC3CC(N)C4)sc2-c2ccccn2)cc1F (stereo not shown) [Example 201, 4-(5-(3-amino-8-azabicyclo [3.2.1]octane-8-carbonyl)-2-(pyridin-2-yl)thiophen-3-yl)-2-fluorobenzonitrile Hydrochloride] | 384 nM | 26.8 nM | –
14 | N#Cc1ccc(-c2cc(C(=O)N3C4CCC3CC(N)C4)sc2-c2ccncn2)cc1F (stereo not shown) [Example 202, 4-(5-(3-amino-8-azabicyclo [3.2.1]octane-8-carbonyl)-2-(pyrimidin-4-yl)thiophen-3-yl)-2-fluoro-benzonitrile hydrochloride] | > 1000 nM | 77.1 nM | –
15 | N#Cc1ccc(-c2cc(C(=O)N3C4CCC3CC(N)C4)sc2-c2ccc3cn[nH]c3c2)cc1F (stereo not shown) [Example 203, 4-(5-(3-amino-8-azabicyclo [3.2.1]octane-8-carbonyl)-2-(1H-indazol-6-yl)thiophen-3-yl)-2-fluoro-benzonitrile] | 37.6 nM | 0.39 nM | –
16 | Cc1noc2cc(-c3sc(C(=O)N4C5CCC4CC(N)C5)cc3-c3ccncc3)c(F)cc12 (stereo not shown) [Example 204, (3-amino-8-azabicyclo [3.2.1]octane-8-yl) (5-(5-fluoro-3-methylbenzo [d]isoxazol-6-yl)-4-(pyridin-4-yl)thiophen-2-yl)methanone hydrochloride] | 118 nM | 12.2 ± 7.3 nM | –

Row | SMILES | IC50 [1] | IC50 ([2]; HTRF, H3K4me1 substrate) | IC50 [2]
17 | Cc1noc2c(-c3sc(C(=O)N4C5CCC4CC(N)C5)cc3-c3ccc(C#N)c(F)c3)c(F)ccc12 (stereo not shown) [Example 209, 4-(5-(3-amino-8-azabicyclo [3.2.1]octan-8-carbonyl)-2-(6-fluoro-3-methylbenzo[d]isoxazol-7-yl)thiophen-3-yl)-2-fluoro-benzonitrile hydrochloride] | 1.44 nM | 0.507 nM | –
18 | N#Cc1ccc(-c2cc(C(=O)N3C4CCC3CC(N)C4)sc2-c2ccc3oc(=O)[nH]c3c2)cc1F (stereo not shown) [Example 214, 4-(5-(3-amino-8-azabicyclo [3.2.1]octan-8-carbonyl)-2-(2-carbonyl-2,3-dihydrobenzo[d]oxazol-5-yl)thiophen-3-yl)-2-fluoro benzonitrile hydrochloride] | 493 nM | 0.47 ± 0.13 nM | –
19 | N#Cc1ccc(-c2cc(C(=O)N3C4CCC3CC(N)C4)sc2-c2cc3[nH]nnc3cc2F)cc1F (stereo not shown) [Example 216, 4-(5-(3-amino-8-azabicyclo [3.2.1]octan-8-carbonyl)-2-(5-fluoro-1H-benzo [d][1,2,3]triazol-6-yl)thio-phen-3-yl)-2-fluorobenzo-nitrile hydrochloride] | 20.9 nM | 8.14 ± 1.84 nM | –
20 | CC(C)(O)Cn1ncc2cc(F)c(-c3sc(C(=O)N4C5CCC4CC(N)C5)cc3-c3ccc(C#N)c(F)c3)cc21 (stereo not shown) [Example 217, 4-(5-(3-amino-8-azabicyclo [3.2.1]octan-8-carbonyl)-2-(5-fluoro-1-(2-hydroxy-2-methylpropyl)-1H-indazol-6-yl)thiophen-3-yl)-2-fluorobenzonitrile hydrochloride] | 67.8 nM | 12.8 nM | –
21 | COc1ccc(-c2sc(C(=O)N3C4CCC3CC(N)C4)cc2-c2ccc(C#N)c(F)c2)cc1O (stereo not shown) [Example 218, 4-(5-(3-amino-8-azabicyclo [3.2.1]octan-8-carbonyl)-2-(3-hydroxy-4-methoxy-phenyl)thiophen-3-yl)-2-fluorobenzonitrile] | 0.88 nM | 0.15 ± 0.03 nM | –
22 | Cc1noc2cc(-c3oc(C(=O)N4C5CCC4CC(N)C5)cc3-c3ccc(C#N)c(F)c3)c(F)cc12 (stereo not shown) [Example 219, 4-(5-(3-amino-8-azabicyclo[3.2.1]octane-8-carbonyl)-2-(5-fluoro-3-methylbenzo[d]isoxazol-6-yl)furan-3-yl)-2-fluorobenzonitrile hydrochloride] | 95.3 nM | – | 7.3 ± 0.46 nM
23 | N#CCn1ncc2cc(F)c(-c3sc(C(=O)N4C5CCC4CC(N)C5)nc3-c3ccc(C#N)c(F)c3)cc21 (stereo not shown) [Example 221, 4-(2-(3-amino-8-azabicyclo[3.2.1]octan-8-carbonyl)-5-(1-(cyanomethyl)-5-fluoro-1H-indazol-6-yl)thiazol-4-yl)-2-fluorobenzonitrile hydrochloride] | 29.8 nM | 10 ± 3.2 nM | –
24 | Cc1noc2cc(-c3oc(C(=O)N4C5CCC4CC(N)C5)nc3-c3ccc(C#N)c(F)c3)c(F)cc12 (stereo not shown) [Example 222, 4-(2-(3-amino-8-azabicyclo[3.2.1]octane-8-carbonyl)-5-(5-fluoro-3-methylbenzo[d]isoxazol-6-yl)oxazol-4-yl)-2-fluorobenzonitrile hydrochloride] | 41 nM | 14.4 nM | –
25 | COc1ccc(-c2sc(N3CCC(N)CC3)nc2-c2ccc(C#N)c(F)c2)cc1O [Example 223, 4-(2-(4-aminopiperidin-1-yl)-5-(3-hydroxy-4-methoxyphenyl)thiazol-4-yl)-2-fluorobenzonitrile] | 2.39 nM | 0.1 ± 0.03 nM | –
26 | COc1ccc(-c2nc(CN[C@@H]3C[C@H]3c3ccc(F)cc3)cc(C(=O)N3CCN(S(C)(=O)=O)CC3)n2)cc1F [Example 225] | 27.8 nM | 52.1 nM | –
27 | CS(=O)(=O)N1CCN(C(=O)c2cc(CN[C@@H]3C[C@H]3c3ccc(F)cc3)nc(-c3ccc(-c4ccn[nH]4)cc3)n2)CC1 [Example 226] | 2.53 nM | 19.8 nM | –
28 | O=C(c1cc(CN[C@@H]2C[C@H]2c2ccc(F)cc2)nc(-c2ccc(-n3cccn3)cc2)n1)N1CCOCC1 [Example 229] | 2.05 nM | 13 nM | –
29 | COC(=O)C1CCN(C(=O)c2cc(CN[C@@H]3C[C@H]3c3ccc(F)cc3)nc(-c3ccc(-n4cccn4)cc3)n2)CC1 [Example 231] | 30.2 nM | 22.5 nM | –
30 | CS(=O)(=O)N1CCN(C(=O)c2cc(CN[C@@H]3C[C@H]3c3ccc(F)cc3)nc(-c3ccn4ccnc4c3)n2)CC1 [Example 232] | 209 nM | 548 nM | –
31 | O=C(O)C1CCN(C(=O)c2cc(CN[C@@H]3C[C@H]3c3ccc(F)cc3)nc(-c3ccc(-n4cccn4)cc3)n2)CC1 [Example 234] | 31 ± 8 nM | 165 ± 8 nM | –
32 | Cc1noc2cc(-c3nc(CN[C@@H]4C[C@H]4c4ccc(F)cc4)cc(C(=O)N4CCN(S(C)(=O)=O)CC4)n3)c(F)cc12 [Example 235] | 98.3 nM | 285 nM | –

— patent US20240216357A1 (SICHUAN HUIYU PHARMACEUTICAL CO., LTD., priority 2021, published 2024)
